Earlier results in paper PMC11477967, “Review of the Structural Characteristics and Biological Activities of Tricholoma Secondary Metabolites (2018–2023)” (Molecules, 2024).
One block for each compound: values may come before it.

Columns and labels:
[1] = test system: SMMC-7721; design: method as in PMID 29758519, PMID 32534274
[2] = test system: SW480; design: method as in PMID 29758519, PMID 32534274
[3] = test system: nitric oxide (NO) production in lipopolysaccharide (LPS)-induced RAW264.7 macrophages; settings: Table 1 summary
[4] = test system: human tumor cell lines; design: method as in PMID 29758519, PMID 32534274, PMID 26186257; settings: Table 1 summary
[5] = test system: HL-60
[6] = test system: A-549
[7] = test system: MCF-7
[8] = design: method as in PMID 36480815; settings: Table 1 summary
[9] = test system: MCF7
[10] = test system: H1299
[11] = test system: L929
[12] = test system: human cancer cell lines; settings: for Bioactivities: Cytotoxic against human cancer cell lines: Table 1 summary; for cytotoxicity rank: among 55, 56, 58, 60, 61, cell line not specified
[13] = test system: HT29
[14] = test system: A549; design: method as in doi:10.1177/1934578X1801300901; settings: said to surpass shikonin
[15] = test system: Hep G2; design: method as in doi:10.1177/1934578X1801300901; settings: said to surpass shikonin
[16] = test system: Caki-1; design: method as in doi:10.1177/1934578X1801300901
[17] = test system: MCF-7; design: method as in doi:10.1177/1934578X1801300901
[18] = test system: WISH; design: method as in doi:10.1177/1934578X1801300901
[19] = test system: A-549; design: method as in PMID 37175274
[20] = test system: Hep G2; design: method as in PMID 37175274
[21] = test system: Caki-1; design: method as in PMID 37175274
[22] = test system: MCF-7; design: method as in PMID 37175274
[23] = test system: HeLa; design: method as in PMID 33449279
[24] = design: method as in doi:10.1016/0040-4039(96)01329-9; settings: solutions containing trace inorganic acids
[25] = test system: bacteria; design: method as in PMID 32534274, PMID 26186257, PMID 34604687, PMID 28794307; settings: Table 1 summary
[26] = test system: S. aureus; design: method as in PMID 28794307
[27] = test system: Bacillus subtilis; design: method as in PMID 28794307
[28] = test system: S. epidermidis; design: method as in PMID 28794307
[29] = test system: E. coli; design: method as in PMID 28794307

Structure (SMILES): COC(=O)C(Cc1ccccc1)NC(=O)CC(C)(O)CC(=O)OC1C(O)CC2(C)C3=C(CCC2C1(C)C)C1(C)CCC(C(C)CCC(O)C(C)(C)O)C1(C)C(O)C3 (stereo not shown) [Compound 2, pardinol B]
IC50 [1]: < 40 µM | IC50 [2]: < 40 µM | Bioactivities: Anti-inflammatory activity [3]: Anti-inflammatory activity | Bioactivities: Anti-cancer activity [4]: Anti-cancer activity | IC50 [5]: < 40 µM | IC50 [6]: < 40 µM | IC50 [7]: < 40 µM

Structure (SMILES): CC(C)C(C)C=CC(C)C1CCC2C3(O)C=CC4=CC(=O)CCC4(C)C3CCC12C (stereo not shown) [Compound 26, isocyathisterol]
IC50 [1]: < 40 µM | IC50 [2]: < 40 µM | Bioactivities: Anti-cancer activity [4]: Anti-cancer activity | IC50 [5]: < 40 µM | IC50 [6]: < 40 µM | IC50 [7]: < 40 µM

IC50 [5]: < 40 µM | IC50 [6]: < 40 µM | IC50 [7]: < 40 µM
Structure (SMILES): CC(C)[C@@H](C)/C=C/[C@@H](C)[C@H]1C[C@H](O)C2=C3C(=O)C=C4C[C@@H](O)CC[C@]4(C)[C@H]3CC[C@@]21C [Compound 32, 3β,15α-dihydroxyl-(22E,24R)-ergosta-5,8(14),22-trien-7-one]
IC50 [1]: < 40 µM | IC50 [2]: < 40 µM | Bioactivities: Anti-cancer activity [4]: Anti-cancer activity

IC50 [5]: < 40 µM | IC50 [6]: < 40 µM | IC50 [7]: < 40 µM
Structure (SMILES): CC(C)C(C)C=CC(C)C1CCC2C3=CC(=O)OC3(O)CCC21C (stereo not shown) [Compound 41, demethylincisterol A3]
IC50 [1]: < 40 µM | IC50 [2]: < 40 µM | Bioactivities: Anti-cancer activity [4]: Anti-cancer activity

IC50 [5]: < 40 µM | IC50 [7]: < 40 µM
Structure (SMILES): COC12CCC3(C)C(CCC3C(C)C=CC(C)C(C)C)C1=CC(=O)O2 (stereo not shown) [Compound 42, volemolide]
IC50 [1]: < 40 µM | IC50 [2]: < 40 µM | Bioactivities: Anti-cancer activity [4]: Anti-cancer activity

Structure (SMILES): CC(C)C(C)/C=C/[C@@H](C)C1CCC2C3=C[C@@H](O)[C@@]45C[C@@H](O)CC[C@]4(C)[C@]3(CC[C@@]21C)O5 (stereo partly shown) [Compound 51, anatoluin B]
Bioactivities: Antioxidant activity [8]: Antioxidant activity | cytotoxic activity [9]: selectively inhibited | cytotoxic activity [10]: selectively inhibited | toxicity to normal or healthy cell lines [11]: almost no toxicity | cytotoxic activity [12]: good cytotoxic activity

Structure (SMILES): CC(C)C(C)/C=C/C(C)C1CCC2C3=CC4OC45C[C@@H](O)CC[C@]5(C)C3CC[C@@]21C (stereo partly drawn) [Compound 52, 5α,6α-epoxy-ergosta-7,22-dien,3β-ol]
Bioactivities: Antioxidant activity [8]: Antioxidant activity | cytotoxic activity [9]: selectively inhibited | cytotoxic activity [13]: selectively inhibited | cytotoxic activity [10]: selectively inhibited | toxicity to normal or healthy cell lines [11]: almost no toxicity

Structure (SMILES): C=C1CCC(CC=C2CCC3(OC2)OC2(O)CCC3(C)OC2(C)C)C(C)(C)C1C(O)C=C1CCOC1=O (stereo not shown) [Compound 55, saponaceolide T]
antiproliferative effects [14]: strong antiproliferative effects | antiproliferative effects [15]: strong antiproliferative effects | antiproliferative effects [16]: strong antiproliferative effects | antiproliferative effects [17]: strong antiproliferative effects | antiproliferative effects [18]: strong antiproliferative effects | Bioactivities: Cytotoxic against human cancer cell lines [12]: Cytotoxic against human cancer cell lines

Structure (SMILES): C=C1CCC(CCC2CCC3(OC2)OC2(O)CCC3(C)OC2(C)C)C(C)(C)C1CC=C1C(=O)OCC1O (stereo not shown) [Compound 56, saponaceolide A]
inhibitory effects [19]: notable inhibitory effects | inhibitory effects [20]: notable inhibitory effects | inhibitory effects [21]: notable inhibitory effects | inhibitory effects [22]: notable inhibitory effects | antiproliferative effects [14]: strong antiproliferative effects | antiproliferative effects [15]: strong antiproliferative effects | antiproliferative effects [16]: strong antiproliferative effects | antiproliferative effects [17]: strong antiproliferative effects | antiproliferative effects [18]: strong antiproliferative effects | Bioactivities: Cytotoxic against human cancer cell lines [12]: Cytotoxic against human cancer cell lines | cytotoxicity rank [12]: most significant cytotoxicity

Structure (SMILES): C=C1CCC(CCC2CCC3(OC2)OC2(O)CCC3(C)OC2(C)C)C(C)(C)C1CC=C1CCOC1=O (stereo not shown) [Compound 57, saponaceolide B]
inhibitory effects [19]: notable inhibitory effects | inhibitory effects [20]: notable inhibitory effects | inhibitory effects [21]: notable inhibitory effects | inhibitory effects [22]: notable inhibitory effects | Bioactivities: Cytotoxic against human cancer cell lines [12]: Cytotoxic against human cancer cell lines

Structure (SMILES): C=C1CCC(CCC2CCC3(OC2)OC2(O)CCC3(C)OC2(C)C)C(C)(C)C1C(O)C=C1C(=O)OCC1O (stereo not shown) [Compound 58, saponaceolide C]
antiproliferative effects [14]: strong antiproliferative effects | antiproliferative effects [15]: strong antiproliferative effects | antiproliferative effects [16]: strong antiproliferative effects | antiproliferative effects [17]: strong antiproliferative effects | antiproliferative effects [18]: strong antiproliferative effects | Bioactivities: Cytotoxic against human cancer cell lines [12]: Cytotoxic against human cancer cell lines

Structure (SMILES): C=C1CCC(CC=C2CCC3(OC2)OC2(O)CCC3(C)OC2(C)C)C(C)(C)C1CC=C1C(=O)OCC1O (stereo not shown) [Compound 60, saponaceolide F]
inhibitory effects [19]: notable inhibitory effects | inhibitory effects [20]: notable inhibitory effects | inhibitory effects [21]: notable inhibitory effects | inhibitory effects [22]: notable inhibitory effects | antiproliferative effects [14]: strong antiproliferative effects | antiproliferative effects [15]: strong antiproliferative effects | antiproliferative effects [16]: strong antiproliferative effects | antiproliferative effects [17]: strong antiproliferative effects | antiproliferative effects [18]: strong antiproliferative effects | Bioactivities: Cytotoxic against human cancer cell lines [12]: Cytotoxic against human cancer cell lines | cytotoxicity rank [12]: most significant cytotoxicity

Structure (SMILES): C=C1CCC(CCC2CCC3(OC2)OC2(O)CCC3(C)OC2(C)C)C(C)(C)C1C(O)C=C1CCOC1=O (stereo not shown) [Compound 61, saponaceolide H]
antiproliferative effects [14]: strong antiproliferative effects | antiproliferative effects [15]: strong antiproliferative effects | antiproliferative effects [16]: strong antiproliferative effects | antiproliferative effects [17]: strong antiproliferative effects | antiproliferative effects [18]: strong antiproliferative effects | Bioactivities: Cytotoxic against human cancer cell lines [12]: Cytotoxic against human cancer cell lines | cytotoxicity rank [12]: most significant cytotoxicity

Structure (SMILES): C=C1CCC(CC=C2CCC3(OC2)OC2(O)CCC3(C)OC2(C)C)C(C)(C)C1CC=C1CCOC1=O (stereo not shown) [Compound 62, saponaceolide J]
inhibitory effects [19]: notable inhibitory effects | inhibitory effects [20]: notable inhibitory effects | inhibitory effects [21]: notable inhibitory effects | inhibitory effects [22]: notable inhibitory effects | Bioactivities: Cytotoxic against human cancer cell lines [12]: Cytotoxic against human cancer cell lines

Structure (SMILES): C=C1CCC(CCC2CC=C(C3(C)CCC(=O)C(C)(C)O3)OC2)C(C)(C)C1CC=C1CCOC1=O (stereo not shown) [Compound 64, tricholopardin D]
cytotoxicity [23]: cytotoxicity | Bioactivities: Cytotoxic against human cancer cell lines [12]: Cytotoxic against human cancer cell lines

stability [24]: easily decomposes
Structure (SMILES): C=C(C#CC1=CC(OC(C)=O)CC(OC(=O)C(C)=CCCC(=C)C#CC2=CC(OC(C)=O)C3OC3C2=O)C1=O)CCC=C(C)C(=O)O (stereo not shown) [Compound 79, tricholomenyn C]

Structure (SMILES): CCC(=O)C1=C(C(COC(C)=O)NC(=O)CCC(N)C(=O)O)C(OC(=O)CC(C)C)CC1OC (stereo not shown) [Compound 87, pardinumone D]
Bioactivities: Antibacterial activity [25]: Antibacterial activity

Structure (SMILES): C=CC(O)CCCCC (stereo not shown) [Compound 93, 1-octen-3-ol]
antibacterial activity [26]: strong antibacterial activity | antibacterial activity [27]: strong antibacterial activity | antibacterial activity [28]: strong antibacterial activity | antibacterial activity [29]: strong antibacterial activity | Bioactivities: Antibacterial activity [25]: Antibacterial activity
